Laboratory results published in patent US9439984B2, “Macrocycles” (priority 2012, dated 2016).

What was measured:
[1] = cited from earlier work; for log β011: m=0, l=1, h=1 (ligand protonation), printed among stability constants for Th; for log β012: m=0, l=1, h=2 (ligand protonation); for log β013: m=0, l=1, h=3 (ligand protonation); for log β014: m=0, l=1, h=4 (ligand protonation); for log β015: m=0, l=1, h=5 (ligand protonation)
[2] = cited from earlier work; for Log K1 with thorium(IV): ligands of increasing denticity; for log β110 with Th: literature constant used for comparison and in the refinement; for log β111 with Th: protonated 1:1 Th complex, constant included in the refinement
[3] = Th(IV) spectrophotometric EDTA competition titration (solution thermodynamics); details: for pM value (negative logarithm of the free metal concentration): Th(IV); for log β110 (cumulative stability constant) with Th(IV): 25° C., 0.1 M KCl, 5% DMSO, βmlh for mM+lL+hH ⇄ MmLlHh
Protocol: All spectrophotometric titrations were carried out with constant stirring and a blanket of argon flow in a jacketed cell connected to a recirculating water bath to maintain the temperature at 25° C. All solutions contained 0.1 M KCl with 5% DMSO (v/v), for consistency with titrations where DMSO was used to ensure solubility. The ligand was added as a 50 mM DMSO stock solution, and Th(IV) as a standardized 10 mM stock solution in nitric acid (79 mM). The HCl and KOH solutions were prepared by dilution of Dilut-It (J. T. Baker) concentrated solutions with degassed Millipore water containing 5% DMSO, to maintain the DMSO concentration constant throughout the titration. The 0.1 M HCl solution was standardized by titration of Tris using bromocresol green as an indicator, and the 0.1 M KOH solution was standardized by titration of KHP using phenolphthalein as an indicator. The glass electrode (Nova Analytics Pinnacle) used for the pH measurements was calibrated by adding 2.000 mL 0.1 M HCl (5% DMSO) to 50.0 mL 0.1 M KCl (5% DMSO), and titrating the solution to pH 11.6 with 0.1 M KOH (5% DMSO). The titration was analyzed using the program GLEE to refine for 8 and the slope. For low pH titrations, a strong acid calibration was performed by titrating 50.0 mL 0.1 M KCl with 5% (v/v) DMSO with 0.1 M HCl to pH 1.8. The data were analyzed in an Excel spreadsheet using the SOLVER function to refine for Σ° and the slope. Metrohm Brinkmann 665 Dosimat instruments were the automated burettes used to dispense the titrant, the pH meter was a Fisher Accumet AR 15, and the UV-Vis spectrometer a Hewlett-Packard 8452A. The computer program Labview was the interface from which all these components were orchestrated to run the titrations. A value of −14.20 was used as the pKw to account for the DMSO content.
50 mL solutions (5% DMSO) of 50 μM ligand and 20 equivalents (1 mM) each of MES, HEPES, and CHES, were titrated forward and backward between pH 1.9 and 12.7 with standardized 0.1 M KOH and 0.1 M HCl. The data points were collected at constant increments of 0.05 pH units at pH 1.9-11.5, with an equilibration time of 90-500 sec following titrant additions and a 10 min. delay between successive pH readings. Titration data above pH 11.5 was collected at constant increments of 0.10 pH units, to minimize the time at which the electrode is exposed to strongly basic conditions. All absorbance measurements used in the refinement were no more than 1.0 absorbance units. Spectra from 300-450 nm were analyzed (simultaneously) in the program pHAb. Titrations for constants reported with a standard deviation were performed in triplicate (the standard deviation is between individually refined values for each titration).
50 mL solutions of 50 μM ligand, 50 μM Th(IV), and 500 μM EDTA (Sigma Aldrich) or DTPA (Pharm-Eco) were titrated forward and backward with standardized 0.1 M KOH and 0.1 M HCl. The data points were collected at constant increments of 0.05 pH units, with an equilibration time of 90-500 sec following titrant additions and a 20-30 min delay between successive pH readings. All absorbance measurements used in the refinement were no more than 1.1 absorbance units. Spectra from 300-450 nm were analyzed (simultaneously) in the program pHAb. The following values for the log β for the formation of Th hydroxides were included in the refinement: [ThOH]^3+, −2.5; [Th(OH)2]^2+, −6.2; Th(OH)4, −17.4; [Th2(OH)2]^6+, −5.9; [Th2(OH)3]^5+, −6.8; [Th4(OH)8]^8+, −20.4; [Th4(OH)12]^4+, −26.6; [Th4(OH)14]^2+, −36.8; [Th4(OH)15]^+, −36.8. The following stability constants for Th with EDTA (DTPA) were also included: log β011, 10.17 (10.45); log β012, 16.28 (18.98); log β013, 18.96 (23.26); log β014, 22.46 (25.91); log β015, 22.46 (27.73); log β110, 23.2 (28.78); log β111, 25.18 (30.94). Spectra of the free ligand, refined from the ligand titrations, were set constant in the refinement as well.

[4] = UV-Vis dye (arsenazo III) displacement kinetic experiments; format: binding; details: 100 mM HEPES pH 7.4, 100 mM KCl, 25° C., qualitative
Protocol: Spectra were acquired on an Hewlett-Packard 8453 spectrometer at 25° C. The temperature was controlled by a recirculating water bath connected to a jacketed cell holder. Samples were measured in small volume (50 μL) quartz cuvettes with 1 cm path lengths. Solutions were buffered with 100 mM HEPES at pH 7.4 (at 25° C.) and 100 mM KCl. Complexation of the thorium and dye was performed by combining aqueous stock solutions of standardized Th^4+ in nitric acid (77.9 mM HNO3, pH 1.4, 1 mM) and purified dye (1 mM). The solution was let sit on the bench at room temperature for 30 min, diluted in buffer, and let sit at room temperature for an hour. The absorbance was monitored starting from the addition of ligand, as a solution of DMSO ligand stock solution (5 mM) and buffer (equilibrated for 15 min. beforehand). The A vs. t plots were fit with a first-order decay equation in Origin at wavelengths corresponding to the appearance of free dye (550, 560 nm) and the disappearance of thorium-dye complex (614, 669, 700 nm). The reaction with DOTA was refluxed (and stirred with a magnetic stir bar) and performed on a 3 mL scale (instead of 100 μL) in a 10 mL round-bottom flask, placed in an oil bath, and fitted with a reflux condenser. Aliquots were taken periodically and transferred to a cuvette for UV-Vis spectra acquisition. […]

[5] = Stopped-flow UV-Vis kinetics of direct association with Th(IV); format: binding; details: 5 μM Th, 10-25 equivalents of ligand, 100 mM HEPES (pH 7.4), 5% DMSO; average of four experiments
Protocol: The stopped-flow kinetic experiments were performed using a stopped-flow apparatus equipped with an OLis rapid-scanning monochromator 1000 and a 75 W Xe lamp. Upon electronic activation, the apparatus (powered with a gas source, in this case, Ar) mixes 100 μL of each solution in the two syringes into a mixing chamber. This mixture is flowed into a separate chamber, where the flow is stopped and UV spectra are taken. One syringe contained 10 μM Th(IV) in 77.9 mM HNO3 (pH 1.4), while the other held a solution of 50-300 μM ligand, in 200 mM HEPES (pH 8.3) and 10% DMSO. The 1:1 mixture of these solutions was 5 μM Th, 25-150 μM ligand, 100 mM HEPES (pH 7.4). […] The data were analyzed using the program SpecFit to simultaneously use the absorbance at all of the wavelengths to obtain a second-order rate constant.
The kinetics of the direct association of L with Th(IV) have been elusive thus far due to the presence of various species in solution (as the metal ion can hydrolyze to form various species such as Th(OH)^3+, Th(OH)2^2+, Th4(OH)12^4+, and Th(OH)4, and L has many protonation states) and the small spectral change upon complexation. […] However, UV-Vis kinetics experiments using a stopped-flow apparatus and more intense light source enabled a direct and quantitative assessment of the complexation. […]

[6] = 1 μM metal, 10 μM ligand, pH 7.4

In the case of O=C(O)CN(CCN(CC(=O)O)CC(=O)O)CC(=O)O [EDTA], the “log β011” value [1] is given as 10.17, the “log β012” value [1] is given as 16.28 and the “log β013” value [1] is given as 18.96. The “log β014” value [1] was 22.46, the “log β015” value [1] was 22.46 and the “Log K1 with thorium(IV)” value [2] was 25.3. The “log β110 with Th” value [2] was 23.2 and the “log β111 with Th” value [2] was 25.18.
In the case of O=C(O)CN(CCN(CC(=O)O)CC(=O)O)CCN(CC(=O)O)CC(=O)O [DTPA], the “log β011” value [1] is given as 10.45, the “log β012” value [1] is given as 18.98 and the “log β013” value [1] is given as 23.26. The “log β014” value [1] was 25.91, the “log β015” value [1] was 27.73 and the “Log K1 with thorium(IV)” value [2] was 30.34. The “log β110 with Th” value [2] was 28.78 and the “log β111 with Th” value [2] was 30.94.
In the case of O=C(O)CN(CCN(CCN(CC(=O)O)CC(=O)O)CC(=O)O)CCN(CC(=O)O)CC(=O)O [TTHA], the “Log K1 with thorium(IV)” value [2] is listed as 31.9.
In the case of O=C(O)CN(CCO)CCN(CC(=O)O)CC(=O)O [HEDTA], the “Log K1 with thorium(IV)” value [2] is given as 18.5.
In the case of O=C(O)CN(CC(=O)O)CC(=O)O [NTA], the “Log K1 with thorium(IV)” value [2] is listed as 16.9.
With CNC(=O)c1ccc(C(=O)NCCCN(CCCCN(CCCNC(=O)c2ccc(C(=O)NC)c(O)c2O)C(=O)c2ccc(C(=O)NC)c(O)c2O)C(=O)c2ccc(C(=O)NC)c(O)c2O)c(O)c1O [3,4,3-LiMeTAM] the “pM value (negative logarithm of the free metal concentration)” value [3, 6] was 39.2 and the “log β110 (cumulative stability constant) with Th(IV)” value [3] was 56.1.
In the case of CC(=O)CC(C)=O [Acac], the “Log K1 with thorium(IV)” value [2] is given as 7.85.
With COCCNC(=O)c1ccc(C(=O)NCCN2CCNC(=O)c3ccc(c(O)c3O)C(=O)NCCN(CCNC(=O)c3ccc(C(=O)NCCOC)c(O)c3O)CCNC(=O)c3ccc(c(O)c3O)C(=O)NCC2)c(O)c1O [phi(2,2)moeTAM, Tren2TAM2[TAM(OMeEtN)]2] the “rate of Th(IV) complexation greater than those of DOTA and DTPA” value [4] was 1-2 orders of magnitudes, the “second-order rate constant of complexation of Th(IV)” value [5] was 1.6(3)×10^4 M^−1 s^−1 and the “pM value (negative logarithm of the free metal concentration)” value [3, 6] was 40.2. For the same compound, the “pM greater than the pM value for DTPA” value ([3]; 1 μM metal, 10 μM ligand, pH 7.4, relative to DTPA) was 14 orders of magnitude, the “pM greater than the pM value for ethyl-TAM” value ([3]; 1 μM metal, 10 μM ligand, pH 7.4, relative to ethyl-TAM) was 21 orders of magnitude and the “log β110 (cumulative stability constant) with Th(IV)” value [3] was 53.7(5). For the same compound, the “log β110 greater than that of DTPA” value ([3]; relative to DTPA (28.78)) was “over 24 orders of magnitude”.
